Experimental data as given in PubChem BioAssay (NCI).
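Step 1: Grow cells in 96-well plates. Step 2: Expose to compound for 48 hours at 5 concentrations. Step 3: Interpolate endpoints linearly; if unreached, use highest concentration. TGI marks complete inhibition of growth.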

Key:
Assay in all cases: NCI tumour cell line growth inhibition, 48 h
786-0 renal = system: 786-0 renal
A498 renal = system: A498 renal
A549 NSCLC = system: A549 NSCLC
ACHN renal = system: ACHN renal
CAKI-1 renal = system: CAKI-1 renal
CCRF-CEM leukemia = system: CCRF-CEM leukemia
COLO 205 colon = system: COLO 205 colon
DLD-1 colon = system: DLD-1 colon
DMS 114 small cell lung = system: DMS 114 small cell lung
DMS 273 small cell lung = system: DMS 273 small cell lung
EKVX NSCLC = system: EKVX NSCLC
HCC-2998 colon = system: HCC-2998 colon
HCT-116 colon = system: HCT-116 colon
HCT-15 colon = system: HCT-15 colon
HL-60(TB) leukemia = system: HL-60(TB) leukemia
HOP-18 NSCLC = system: HOP-18 NSCLC
HOP-62 NSCLC = system: HOP-62 NSCLC
HOP-92 NSCLC = system: HOP-92 NSCLC
HT29 colon = system: HT29 colon
IGROV1 ovarian = system: IGROV1 ovarian
K-562 leukemia = system: K-562 leukemia
KM12 colon = system: KM12 colon
KM20L2 colon = system: KM20L2 colon
LOX IMVI melanoma = system: LOX IMVI melanoma
LXFL 529 NSCLC = system: LXFL 529 NSCLC
M14 melanoma = system: M14 melanoma
M19-MEL melanoma = system: M19-MEL melanoma
MALME-3M melanoma = system: MALME-3M melanoma
MOLT-4 leukemia = system: MOLT-4 leukemia
NCI-H226 lung = system: NCI-H226 lung
NCI-H23 lung = system: NCI-H23 lung
NCI-H460 lung = system: NCI-H460 lung
NCI-H522 lung = system: NCI-H522 lung
OVCAR-3 ovarian = system: OVCAR-3 ovarian
OVCAR-4 ovarian = system: OVCAR-4 ovarian
OVCAR-5 ovarian = system: OVCAR-5 ovarian
OVCAR-8 ovarian = system: OVCAR-8 ovarian
RXF 393 renal = system: RXF 393 renal
RXF-631 renal = system: RXF-631 renal
SF-268 CNS = system: SF-268 CNS
SF-295 CNS = system: SF-295 CNS
SF-539 CNS = system: SF-539 CNS
SK-MEL-2 melanoma = system: SK-MEL-2 melanoma
SK-MEL-28 melanoma = system: SK-MEL-28 melanoma
SK-MEL-5 melanoma = system: SK-MEL-5 melanoma
SK-OV-3 ovarian = system: SK-OV-3 ovarian
SN12C renal = system: SN12C renal
SNB-19 CNS = system: SNB-19 CNS
SNB-75 CNS = system: SNB-75 CNS
SNB-78 CNS = system: SNB-78 CNS
SR leukemia = system: SR leukemia
SW-620 colon = system: SW-620 colon
TK-10 renal = system: TK-10 renal
U251 CNS = system: U251 CNS
UACC-257 melanoma = system: UACC-257 melanoma
UACC-62 melanoma = system: UACC-62 melanoma
UO-31 renal = system: UO-31 renal

Measured: TGI

C=CCNC(=O)/C=C\C(=O)O
> 100 µM: all assays above

CC/C(CC(=O)CCC(=O)Nc1c(C)cccc1C)=N\NC(=O)NN
not listed: CAKI-1 renal | DMS 114 small cell lung | DMS 273 small cell lung | HOP-62 NSCLC | LOX IMVI melanoma | NCI-H226 lung | NCI-H522 lung | SK-MEL-28 melanoma | SK-OV-3 ovarian | SNB-75 CNS
> 100 µM: all other assays above
